# Test results taken from patent publication US10336731B2, “Substituted 1H-indole-2-carboxamide compounds as indoleamine-2,3-dioxygenase inhibitors” (Merck Sharp & Dohme Corp., priority 2015, dated 2019).
# pIC50: −log10 of the molar value.
# Experiments:
# IDO (SKOV-3 cells) = IDO (SKOV-3 cells) (Homo sapiens (Human), UniProt P14902); experiment: IDO cell-based assay (kynurenine production in IFNγ-induced SKOV-3 cells); settings: IFNγ 500 ng/ml, 500 μM L-Trp, 48 h, read-out: pIC50, IDO cellular assay (SKOV3) (converted)
# Description: (§1) For REF1-REF3 and Compounds 1-11, two different types of assay were employed: 1. An IDO biochemical coupled assay which utilised recombinantly produced and purified IDO enzyme in combination with the enzyme formamidase. This coupled enzyme system allowed conversion of N-formylkynurenine produced by IDO activity to kynurenine which was then quantified by fluorescence following addition of Erhlich's Reagent. 2. A cell-based assay for detecting the effect of test compounds on kynurenine production in cancer cells. This assay utilised cancer cells which expressed IDO and as such was used as a means of testing compound activity at the enzyme in a cell-based context. The protocols for these are set out below.
# SKOV-3 ovary adenocarcinoma (ATCC) cells were grown in McCoys 5A+L-glutamax medium supplemented with 15% foetal bovine serum. On the day of assay, cells were detached using trypsin-EDTA (0.25% v/v), re-suspended in assay media (RPMI 1640 phenol red free+L-glutamine supplemented with 10% dialysed foetal bovine serum). SKOV-3 cells were seeded at 40K cells per well into 96-well plates containing test samples/vehicle control together with 500 μM L-Trp. Cells were then incubated for 48 h at 37° C. 5% CO2. IFNγ was also added at 500 ng/ml for the 48 h incubation in order to induce expression of IDO. Plates were centrifuged and the supernatant was removed and incubated for 5 min in the presence of 1% Erhlich's reagent. Kynurenine levels were then quantified by measuring absorbance at 490 nm.
# human IDO protein = human IDO protein (Homo sapiens (Human), UniProt P14902); experiment: IDO biochemical coupled assay (formamidase, Ehrlich's reagent); settings: 0.17 μM human IDO, 120 min pre-incubation, 45 μM L-Trp; read-out: hIDO biochemical assay pIC50 (converted)
# Description: as §1
# 0.17 μM of human IDO protein was pre-incubated for 120 min at RT with test compounds in the presence of 50 mM KPO4, pH 7.0, 0.5 mM EDTA, 0.5 mM EGTA, 0.05% Triton X-100, 20 mM ascorbate, 500 U/ml catalase, 10 μM methylene blue at RT in a 384 well plate. 0.05 μg/μl kynurenine formamidase and 45 μM L-tryptophan (L-Trp) were added and the assays were incubated at RT for 40 min. Assays were stopped and the level of kynurenine was determined by incubation with Ehrlich's reagent to a final concentration of 1.33% at RT for 5 min. Fluorescence intensity was read at 475 nm/530 nm.
# hIDO1 = hIDO1 (Homo sapiens (Human), UniProt P14902); experiment: IDO1 cellular assay in HEK293 cells transiently expressing hIDO1; assay type: cell-based; settings: HEK293 cell line transiently expressing hIDO1, n=1
# Experimental: Compounds to be tested were serially diluted in ten 3-fold steps in DMSO starting from 10 mM DMSO stocks. Compound dilutions or DMSO alone were then dispensed from the dilution plate into a Greiner black 384-well assay plate (catalog #781086) using an Echo 550 acoustic liquid handler (Labcyte).
# HEK293 cell pellets were resuspended to 5×10^5 cells/mL in complete HEK293 culture media (89% DMEM, 10% FBS, 1% penicillin/streptomycin). Suspended cells (2 mL) were dispensed into each well of a 6-well Corning plate (Catalog#3516). Cells were allowed to attach and were incubated for 20 hours at 37 degrees Celsius in a 5% CO2 incubator. […]
# Media was removed from the cells which were then washed with 2 mL Dulbecco's phosphate-buffered saline (DPBS). […] Plates were incubated at 37 degrees in a 5% CO2 incubator overnight to develop fluorescence. […] The resulting fluorescence was measured in an Envision plate reader (Perkin Elmer) with a 400/25 nm excitation filter and an 510/20 nm emission filter.
# The fluorescence intensity of each well was corrected for the background observed in wells with untransfected cells and was expressed as a fraction of the intensity observed in wells of IDO1 transfected cells and DMSO only. Potencies were calculated by […] to the four parameter logistic IC50 equation.
# Sequence of IDO (SKOV-3 cells) (P14902 whole entry): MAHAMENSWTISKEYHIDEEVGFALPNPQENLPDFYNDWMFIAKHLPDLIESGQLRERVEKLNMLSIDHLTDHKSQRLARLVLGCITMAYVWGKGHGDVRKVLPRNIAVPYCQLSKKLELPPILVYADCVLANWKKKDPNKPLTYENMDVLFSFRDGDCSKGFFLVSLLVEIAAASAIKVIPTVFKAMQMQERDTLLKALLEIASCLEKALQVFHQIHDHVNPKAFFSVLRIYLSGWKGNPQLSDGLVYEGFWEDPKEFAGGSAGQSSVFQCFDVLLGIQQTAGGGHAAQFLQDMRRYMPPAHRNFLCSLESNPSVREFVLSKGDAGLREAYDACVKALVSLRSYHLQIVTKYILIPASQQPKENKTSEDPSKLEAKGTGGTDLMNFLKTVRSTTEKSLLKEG
# Sequence of human IDO protein (P14902 whole entry): as above
# Sequence of hIDO1 (P14902 whole entry): as above
SMILES,IC50 (IDO (SKOV-3 cells)) [nM],IC50 (human IDO protein) [nM],pIC50 (hIDO1)
"Cn1cc(C2(NC(=O)c3cc4cc(Cl)ccc4[nH]3)CC2)cn1 [REF 1, reference compound]",126,,
"C[C@H]1C[C@@]1(NC(=O)c1cc2cc(Cl)ccc2[nH]1)c1cnn(-c2ccc(Cl)cc2)c1 (single isomer, unassigned) [Compound 10, enantiomer 2]",11.7,,
"C[C@H]1C[C@@]1(NC(=O)c1cc2cc(Br)ccc2[nH]1)c1cnn(C)c1 (racemic) [Compound 2, racemic]",31.6,398,
"C[C@H]1C[C@@]1(NC(=O)c1cc2cc(Cl)ccc2[nH]1)c1cnn(-c2ccc(Cl)cc2)c1 (single isomer, unassigned) [Compound 10, enantiomer 1]",34.7,,
Cn1cc(C2(NC(=O)c3cc4cc(Br)cc(F)c4[nH]3)CC2)cn1 [Compound 6],83.2,,
CCc1nn(C)cc1C1(NC(=O)c2cc3cc(Cl)ccc3[nH]2)CC1 [Compound 3],89.1,,
"C[C@H]1C[C@@]1(NC(=O)c1cc2cc(Cl)ccc2[nH]1)c1cnn(-c2ccc(F)cc2)c1 (single isomer, unassigned) [Compound 11, enantiomer 1]",28.2,,
"CCn1cc(C2(NC(=O)c3cc4cc(Cl)ccc4[nH]3)CC2)cn1 [REF 2, reference compound]",186,,
"C[C@H]1C[C@@]1(NC(=O)c1cc2cc(Cl)ccc2[nH]1)c1cnn(-c2ccc(F)cc2)c1 (single isomer, unassigned) [Compound 11, enantiomer 2]",10,,
"C[C@H]1C[C@@]1(NC(=O)c1cc2cc(C#N)ccc2[nH]1)c1cnn(-c2ccccc2)c1 (single isomer, unassigned) [Compound 9, enantiomer 2]",43.7,,
O=C(NC1(c2cnn(-c3ccccc3)c2)CC1)c1cc2cc(Cl)ccc2[nH]1 [Compound 5],91.2,,
"C[C@@H]1C[C@]1(NC(=O)c1cc2cc(C#N)ccc2[nH]1)c1cnn(C)c1 (stereo in doubt) [Compound 12, 5-cyano-N-((1R,2R)-2-methyl-1-(1-methyl-1H-pyrazol-4-yl)cyclopropyl)-1H-indole-2-carboxamide]",,,6.69
"C[C@H]1C[C@@]1(NC(=O)c1cc2cc(C#N)ccc2[nH]1)c1cnn(-c2ccccc2)c1 (single isomer, unassigned) [Compound 9, enantiomer 1]",77.6,,
"Cn1cc(C2(NC(=O)c3cc4cc(Br)ccc4[nH]3)CC2)cn1 [REF 3, reference compound]",182,,
CC(C)c1nn(C)cc1C1(NC(=O)c2cc3cc(Cl)ccc3[nH]2)CC1 [Compound 4],87.1,,
